Literature values in patent publication US20120252687A1, “Scoring Function Penalizing Compounds Which Desolvate Charged Protein Side Chains Structure” (priority 2011, published 2012).

Legend:
Cdk2 = Cdk2 (Homo sapiens, UniProt P24941); conditions: PDB complex
Jnk = Jnk (Homo sapiens, UniProt P53779); conditions: PDB complex
Jnk, sequence (P53779 whole entry): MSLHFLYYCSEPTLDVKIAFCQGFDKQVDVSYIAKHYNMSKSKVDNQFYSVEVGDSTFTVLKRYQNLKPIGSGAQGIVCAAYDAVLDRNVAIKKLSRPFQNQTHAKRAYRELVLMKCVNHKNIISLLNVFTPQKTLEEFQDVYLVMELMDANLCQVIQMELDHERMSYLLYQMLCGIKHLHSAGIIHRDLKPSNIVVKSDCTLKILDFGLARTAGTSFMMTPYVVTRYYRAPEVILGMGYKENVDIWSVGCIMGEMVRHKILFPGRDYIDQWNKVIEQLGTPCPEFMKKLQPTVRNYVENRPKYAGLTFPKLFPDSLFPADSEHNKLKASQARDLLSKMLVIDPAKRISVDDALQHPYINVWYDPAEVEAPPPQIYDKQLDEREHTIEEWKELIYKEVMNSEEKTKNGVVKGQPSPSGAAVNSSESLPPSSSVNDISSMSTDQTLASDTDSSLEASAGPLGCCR

Row | dG (experimental free energy of binding) (Cdk2) | dG (experimental free energy of binding) (Jnk) | Structure (SMILES)
1 | −8.5 |  | NS(=O)(=O)c1ccc(Nc2cn3cc(C(=O)c4c(Cl)cccc4Cl)ccc3n2)cc1 [Cdk2_1ykr]
2 |  | −7.5 | N#Cc1c(NC(=O)c2cccc3ccccc23)sc2c1CCN(C(=O)CCN1CCCCC1)C2 [Jnk_2o0u]
